Values of other authors, collected in patent publication US7829688B2, “Peptides of CaV2.2 that inhibit pain” (The Board of Regents of the University of Texas System, priority 2004, dated 2010).

Biological target: T1, N-type Ca2+ channels (Rattus norvegicus, UniProt Q02294, C1579L/DEL1236-1239/DEL415-415/E177G/INS1558ET)
T1 construct: host or cells: rat, in vivo (Malmberg and Yaksh, 1994, 1995)
Details: in vivo; cited from earlier work

T1 sequence (Q02294 whole entry, looked up, stated change not applied): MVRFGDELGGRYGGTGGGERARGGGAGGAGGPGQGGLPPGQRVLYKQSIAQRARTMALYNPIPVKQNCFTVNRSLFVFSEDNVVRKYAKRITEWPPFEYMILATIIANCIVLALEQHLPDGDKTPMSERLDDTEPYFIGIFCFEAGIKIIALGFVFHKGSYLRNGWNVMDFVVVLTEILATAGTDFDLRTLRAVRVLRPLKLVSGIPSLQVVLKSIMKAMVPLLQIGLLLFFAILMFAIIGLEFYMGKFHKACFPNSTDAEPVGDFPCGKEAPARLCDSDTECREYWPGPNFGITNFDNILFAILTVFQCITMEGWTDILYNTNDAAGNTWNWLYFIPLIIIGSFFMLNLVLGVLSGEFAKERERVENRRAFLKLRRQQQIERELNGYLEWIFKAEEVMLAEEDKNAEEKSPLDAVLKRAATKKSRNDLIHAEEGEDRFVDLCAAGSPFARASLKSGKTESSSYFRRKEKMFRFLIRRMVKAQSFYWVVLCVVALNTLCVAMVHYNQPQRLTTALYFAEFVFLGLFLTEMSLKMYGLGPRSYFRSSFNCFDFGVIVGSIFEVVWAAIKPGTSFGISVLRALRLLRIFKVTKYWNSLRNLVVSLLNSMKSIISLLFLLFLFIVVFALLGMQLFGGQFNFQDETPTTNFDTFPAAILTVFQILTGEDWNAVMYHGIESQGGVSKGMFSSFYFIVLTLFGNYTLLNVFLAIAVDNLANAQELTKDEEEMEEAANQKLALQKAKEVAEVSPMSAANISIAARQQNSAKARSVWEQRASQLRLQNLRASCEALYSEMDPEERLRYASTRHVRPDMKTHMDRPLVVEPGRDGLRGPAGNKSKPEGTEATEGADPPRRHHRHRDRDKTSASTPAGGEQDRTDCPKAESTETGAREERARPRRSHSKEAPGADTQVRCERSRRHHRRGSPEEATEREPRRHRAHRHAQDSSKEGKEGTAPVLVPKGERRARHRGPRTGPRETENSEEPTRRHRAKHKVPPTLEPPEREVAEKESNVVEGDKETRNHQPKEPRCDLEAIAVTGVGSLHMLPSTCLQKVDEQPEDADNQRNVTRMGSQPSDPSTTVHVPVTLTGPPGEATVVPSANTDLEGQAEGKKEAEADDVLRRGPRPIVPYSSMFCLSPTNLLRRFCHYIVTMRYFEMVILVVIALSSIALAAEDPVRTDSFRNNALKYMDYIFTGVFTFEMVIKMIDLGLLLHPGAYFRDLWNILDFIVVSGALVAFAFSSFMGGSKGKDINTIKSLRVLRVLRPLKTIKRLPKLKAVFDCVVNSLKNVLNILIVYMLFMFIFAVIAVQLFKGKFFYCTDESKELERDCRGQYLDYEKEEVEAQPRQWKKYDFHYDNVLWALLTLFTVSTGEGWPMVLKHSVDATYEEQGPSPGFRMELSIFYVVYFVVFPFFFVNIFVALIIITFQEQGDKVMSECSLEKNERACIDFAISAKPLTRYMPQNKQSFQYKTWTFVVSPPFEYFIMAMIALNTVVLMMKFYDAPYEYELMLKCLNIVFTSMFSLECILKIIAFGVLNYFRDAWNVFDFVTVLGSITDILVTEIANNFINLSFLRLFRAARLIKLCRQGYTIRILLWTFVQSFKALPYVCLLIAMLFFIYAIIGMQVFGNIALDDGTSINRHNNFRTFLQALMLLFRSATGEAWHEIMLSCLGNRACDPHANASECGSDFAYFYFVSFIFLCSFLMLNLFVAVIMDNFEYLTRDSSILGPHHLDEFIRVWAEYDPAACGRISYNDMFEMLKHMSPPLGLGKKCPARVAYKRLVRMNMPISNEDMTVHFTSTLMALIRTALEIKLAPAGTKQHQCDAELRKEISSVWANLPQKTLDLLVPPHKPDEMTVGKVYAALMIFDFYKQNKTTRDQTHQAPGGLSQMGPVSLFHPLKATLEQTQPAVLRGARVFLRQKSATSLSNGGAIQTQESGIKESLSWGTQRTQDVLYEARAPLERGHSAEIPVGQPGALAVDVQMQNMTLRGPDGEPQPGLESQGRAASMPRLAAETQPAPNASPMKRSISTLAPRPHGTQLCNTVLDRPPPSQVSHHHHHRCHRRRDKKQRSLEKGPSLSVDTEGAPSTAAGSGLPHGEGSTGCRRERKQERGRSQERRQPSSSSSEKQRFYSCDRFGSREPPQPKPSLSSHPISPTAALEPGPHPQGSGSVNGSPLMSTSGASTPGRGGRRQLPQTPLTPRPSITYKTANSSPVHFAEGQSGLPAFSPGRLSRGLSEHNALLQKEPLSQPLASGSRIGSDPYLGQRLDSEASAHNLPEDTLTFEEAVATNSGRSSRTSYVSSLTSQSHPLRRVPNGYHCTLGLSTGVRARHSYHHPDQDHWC

For `CSCC[C@@H]1NC(=O)[C@H](CC(C)C)NC(=O)[C@H](CCCNC(=N)N)NC(=O)[C@H](CO)NC(=O)[C@@H]2CSSC[C@@H]3NC(=O)[C@H](CO)NC(=O)CNC(=O)[C@H]([C@@H](C)O)NC(=O)[C@H](CSSC[C@H](N)C(=O)N[C@@H](CCCCN)C(=O)NCC(=O)N[C@@H](CCCCN)C(=O)NCC(=O)N[C@@H](C)C(=O)N[C@@H](CCCCN)C(=O)N2)NC(=O)[C@H](CSSC[C@@H](C(N)=O)NC(=O)[C@H](CCCCN)NC(=O)CNC(=O)[C@H](CO)NC(=O)[C@H](CCCNC(=N)N)NC3=O)NC(=O)[C@H](CC(=O)O)NC(=O)[C@H](Cc2ccc(O)cc2)NC1=O` [SNX-111], the “phase II formalin response” value is listed as “inhibited”.
